Values after ≈ are worked out from the molar mass of the structure shown. Like-named read-outs stand apart in the source and are kept apart here.
Experiments:
Type in all cases: cell-based
Botrtyis cinerea (Bc) = assay: In vitro pathogen growth inhibition assay, Bc; details: 48 h
How it was run: (§1)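 Spores in 17% V8 liquid medium, or 1.5 mm Rs mycelial plugs in ¼ PDB, incubated with compound; final concentration checked by OD600 for precipitation. OD readings at 24 and 48 h, blank-subtracted, plus visual ratings; value is concentration giving ≥90% growth inhibition.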

[1] = system: Collectotrichum graminicola (Cg); assay: In vitro pathogen growth inhibition assay, Cg; details: 48 h
How it was run: as §1

Diplodia maydis (Dm) = assay: In vitro pathogen growth inhibition assay, Dm; details: Stenocarpella maydis, 48 h
How it was run: (§2)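 Spores of Dm, Fv and Pc were diluted in 17% V8 liquid medium; Rs used 1.5 mm mycelial plugs in ¼ PDB. Compounds from 2.5 mg/ml DMSO stocks were combined with inoculum, growth was read by OD600 at 24 and 48 h with blank subtraction, and the reported value is the concentration giving ≥90% inhibition.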

[2] = system: Fusarium moniliforme (Fm); assay: In vitro pathogen growth inhibition assay, Fm; details: Fusarium verticillioides
How it was run: as §1

[3] = system: Fusarium virguliforme (Fv); assay: In vitro pathogen growth inhibition assay, Fv
How it was run: as §2

[4] = system: Phytophthora capsici (Pc); assay: In vitro pathogen growth inhibition assay, Pc; details: 48 h
How it was run: as §2

Rhizoctonia solani (Rs) = assay: In vitro pathogen growth inhibition assay, Rs (mycelial plugs); details: Rhizoctonia solani, 48 h
How it was run: as §2

Septoria tritici (St) = assay: In vitro pathogen growth inhibition assay, St; details: Zymoseptoria tritici, 48 h
How it was run: as §1

[5] = ≥90% inhibition, 48 hours vs 2% DMSO control, read-out: Compound Concentration (ppm) sufficient for ≥90% inhibition of growth, Bc
[6] = ≥90% inhibition, 48 hours vs 2% DMSO control, read-out: Compound Concentration (ppm) sufficient for ≥90% inhibition of growth, Cg
[7] = ≥90% inhibition, 48 hours vs 2% DMSO control, read-out: Compound Concentration (ppm) sufficient for ≥90% inhibition of growth, Dm
[8] = ≥90% inhibition, 48 hours vs 2% DMSO control, read-out: Compound Concentration (ppm) sufficient for ≥90% inhibition of growth, Fm
[9] = ≥90% inhibition, 48 hours vs 2% DMSO control, read-out: Compound Concentration (ppm) sufficient for ≥90% inhibition of growth, Fv
[10] = ≥90% inhibition, 48 hours vs 2% DMSO control, read-out: Compound Concentration (ppm) sufficient for ≥90% inhibition of growth, Pc
[11] = ≥90% inhibition, mycelial plugs, 48 hours vs 2% DMSO control, read-out: Compound Concentration (ppm) sufficient for ≥90% inhibition of growth, Rs
[12] = ≥90% inhibition, 48 hours vs 2% DMSO control, read-out: Compound Concentration (ppm) sufficient for ≥90% inhibition of growth, St
[13] = ≥90% growth inhibition, 48 hours, vs 2% DMSO control, read-out: Compound Concentration (ppm) sufficient for ≥90% inhibition of Bc
[14] = ≥90% growth inhibition, 48 hours, vs 2% DMSO control, read-out: Compound Concentration (ppm) sufficient for ≥90% inhibition of Cg
[15] = ≥90% growth inhibition, 48 hours, vs 2% DMSO control, read-out: Compound Concentration (ppm) sufficient for ≥90% inhibition of Dm
[16] = ≥90% growth inhibition, 48 hours, vs 2% DMSO control, read-out: Compound Concentration (ppm) sufficient for ≥90% inhibition of Fm
[17] = ≥90% growth inhibition, 48 hours, vs 2% DMSO control, read-out: Compound Concentration (ppm) sufficient for ≥90% inhibition of Fv
[18] = ≥90% growth inhibition, 48 hours, vs 2% DMSO control, read-out: Compound Concentration (ppm) sufficient for ≥90% inhibition of Pc
[19] = ≥90% growth inhibition, mycelial plugs, 48 hours, vs 2% DMSO control, read-out: Compound Concentration (ppm) sufficient for ≥90% inhibition of Rs
[20] = ≥90% growth inhibition, 48 hours, vs 2% DMSO control, read-out: Compound Concentration (ppm) sufficient for ≥90% inhibition of St

Row | SMILES | IC90 (Botrtyis cinerea (Bc); [5]) | IC90 [1, 6] | IC90 (Diplodia maydis (Dm); [7]) | IC90 [2, 8] | IC90 [3, 9] | IC90 [4, 10] | IC90 (Rhizoctonia solani (Rs); [11]) | IC90 (Septoria tritici (St); [12]) | IC90 (Botrtyis cinerea (Bc); [13]) | IC90 [1, 14] | IC90 (Diplodia maydis (Dm); [15]) | IC90 [2, 16] | IC90 [3, 17] | IC90 [4, 18] | IC90 (Rhizoctonia solani (Rs); [19]) | IC90 (Septoria tritici (St); [20]) | also measured
1 | COc1ccccc1[C@H](Cn1c(=O)n(C(C)(C)C(=O)N2CCCCC2)c(=O)c2c(C)c(-n3cccn3)sc21)OC(C)C [Compound I-047] | 0.4 µg/mL (≈ 0.674 µM) | ≥ 2 µg/mL | 2 µg/mL (≈ 3.37 µM) | 0.08 µg/mL (≈ 0.135 µM) | 0.4 µg/mL (≈ 0.674 µM) | > 50 µg/mL | 2 µg/mL (≈ 3.37 µM) | > 50 µg/mL | – | – | – | – | – | – | – | – | –
2 | Cc1c(-n2nccn2)sc2c1c(=O)n(C(C)(C)C(=O)NC(C)C)c(=O)n2C[C@H](OCCO)c1cc(F)ccc1O [Compound I-271] | – | – | – | – | – | – | – | – | 10 µg/mL (≈ 17.4 µM) | ≥ 10 µg/mL | 50 µg/mL (≈ 87 µM) | 2 µg/mL (≈ 3.48 µM) | 10 µg/mL (≈ 17.4 µM) | 50 µg/mL (≈ 87 µM) | 2 µg/mL (≈ 3.48 µM) | > 50 µg/mL | –
3 | COc1ccc(F)cc1[C@H](Cn1c(=O)n([C@@H](C)C(=O)NC2CCC2)c(=O)c2c(C)c(-n3nccn3)sc21)OCCO [Compound I-091] | 0.4 µg/mL (≈ 0.682 µM) | ≥ 2 µg/mL | 2 µg/mL (≈ 3.41 µM) | 0.08 µg/mL (≈ 0.136 µM) | 0.4 µg/mL (≈ 0.682 µM) | > 50 µg/mL | 2 µg/mL (≈ 3.41 µM) | > 50 µg/mL | – | – | – | – | – | – | – | – | –
4 | CCOC(=O)c1sc2c(c1C)c(=O)n([C@@H](C)C(=O)N(C)C(C)C)c(=O)n2C[C@H](OCCC#N)c1cc(F)ccc1OC [Compound I-230] | – | – | – | – | – | – | – | – | 2 µg/mL (≈ 3.32 µM) | 10 µg/mL (≈ 16.6 µM) | ≥ 10 µg/mL | 0.4 µg/mL (≈ 0.664 µM) | 0.4 µg/mL (≈ 0.664 µM) | > 50 µg/mL | 0.08 µg/mL (≈ 0.133 µM) | ≥ 10 µg/mL | –
5 | CCOC(=O)c1sc2c(c1C)c(=O)n([C@@H](C)C(N)=O)c(=O)n2C[C@H](OCCC#N)c1cc(F)ccc1OC [Compound I-227] | – | – | – | – | – | – | – | – | – | – | – | – | – | – | – | – | IC90 (Botrtyis cinerea (Bc); concentration sufficient to ≥90% inhibition of growth, 48 hours vs 2% DMSO control, read-out: Compound Concentration (ppm) for ≥90% inhibition, Bc): 50 µg/mL (≈ 91.5 µM); IC90 ([1]; concentration sufficient to ≥90% inhibition of growth, 48 hours vs 2% DMSO control, read-out: Compound Concentration (ppm) for ≥90% inhibition, Cg): > 50 µg/mL; IC90 (Diplodia maydis (Dm); concentration sufficient to ≥90% inhibition of growth, 48 hours vs 2% DMSO control, read-out: Compound Concentration (ppm) for ≥90% inhibition, Dm): > 50 µg/mL; IC90 ([2]; concentration sufficient to ≥90% inhibition of growth, 48 hours vs 2% DMSO control, read-out: Compound Concentration (ppm) for ≥90% inhibition, Fm): 10 µg/mL (≈ 18.3 µM); IC90 ([3]; concentration sufficient to ≥90% inhibition of growth, 48 hours vs 2% DMSO control, read-out: Compound Concentration (ppm) for ≥90% inhibition, Fv): > 50 µg/mL; IC90 ([4]; concentration sufficient to ≥90% inhibition of growth, 48 hours vs 2% DMSO control, read-out: Compound Concentration (ppm) for ≥90% inhibition, Pc): > 50 µg/mL; IC90 (Rhizoctonia solani (Rs); concentration sufficient to ≥90% inhibition of growth, 48 hours vs 2% DMSO control, read-out: Compound Concentration (ppm) for ≥90% inhibition, Rs): 0.4 µg/mL (≈ 0.732 µM); IC90 (Septoria tritici (St); concentration sufficient to ≥90% inhibition of growth, 48 hours vs 2% DMSO control, read-out: Compound Concentration (ppm) for ≥90% inhibition, St): > 50 µg/mL
6 | Cc1c(-n2nccn2)sc2c1c(=O)n(C(C)(C)C(=O)NC(C)C)c(=O)n2CCc1cc(F)ccc1CCCC#N [Compound I-328] | – | – | – | – | – | – | – | – | 2 µg/mL (≈ 3.54 µM) | 10 µg/mL (≈ 17.7 µM) | 2 µg/mL (≈ 3.54 µM) | 0.4 µg/mL (≈ 0.707 µM) | 0.4 µg/mL (≈ 0.707 µM) | > 50 µg/mL | 10 µg/mL (≈ 17.7 µM) | > 50 µg/mL | –
7 | Cc1c(-n2nccn2)sc2c1c(=O)n(C(C)(C)C(=O)NC(C)C)c(=O)n2CCc1cc(F)ccc1OC1CCOCC1 [Compound I-331] | – | – | – | – | – | – | – | – | 2 µg/mL (≈ 3.34 µM) | 10 µg/mL (≈ 16.7 µM) | > 50 µg/mL | 0.08 µg/mL (≈ 0.134 µM) | 0.08 µg/mL (≈ 0.134 µM) | > 50 µg/mL | 10 µg/mL (≈ 16.7 µM) | > 50 µg/mL | –
8 | COc1ccccc1[C@H](Cn1c(=O)n(C(C)(C)C(=O)N2CCCC2)c(=O)c2c(C)c(-n3cccn3)sc21)OC1CCOCC1 [Compound I-116] | 10 µg/mL (≈ 16.1 µM) | ≥ 2 µg/mL | 10 µg/mL (≈ 16.1 µM) | 0.4 µg/mL (≈ 0.643 µM) | 10 µg/mL (≈ 16.1 µM) | > 50 µg/mL | 2 µg/mL (≈ 3.22 µM) | ≥ 50 µg/mL | – | – | – | – | – | – | – | – | –
9 | COc1ccc(Cl)cc1[C@H](Cn1c(=O)n(C(C)(C)C(=O)NC(C)C)c(=O)c2c(C)c(-n3nccn3)sc21)OCC(C)(C)C#N [Compound I-272] | – | – | – | – | – | – | – | – | 2 µg/mL (≈ 3.11 µM) | 2 µg/mL (≈ 3.11 µM) | 2 µg/mL (≈ 3.11 µM) | 2 µg/mL (≈ 3.11 µM) | 2 µg/mL (≈ 3.11 µM) | > 50 µg/mL | 2 µg/mL (≈ 3.11 µM) | > 50 µg/mL | –
10 | COc1ccccc1CCn1c(=O)n(C(C)(C)C(=O)NC(C)C)c(=O)c2c(C)c(-n3nccn3)sc21 [Compound I-294] | – | – | – | – | – | – | – | – | 0.4 µg/mL (≈ 0.783 µM) | 10 µg/mL (≈ 19.6 µM) | 10 µg/mL (≈ 19.6 µM) | 0.4 µg/mL (≈ 0.783 µM) | 0.08 µg/mL (≈ 0.157 µM) | > 50 µg/mL | 2 µg/mL (≈ 3.92 µM) | > 50 µg/mL | –
